The record followed here is BindingDB's records for doi:10.1016/j.bmcl.2009.09.017 (Pfizer, 2009).

Structures are written as SMILES.

This test is described as follows: Antagonist activity at P2Y12 receptor in human platelet rich plasma assessed as inhibition of ADP-induced platelet aggregation by light transmission aggregometry.
What is called IC50 is the midpoint of a concentration-inhibition curve. Turning to `CCCCCOC(=O)N1CCN(C(=O)[C@H](CCC(=O)O)NC(=O)c2cc(N3CCC(OC)CC3)nc(-c3ccccc3)n2)CC1` [(S)-4-(6-(4-methoxypiperidin-1-yl)-2-phenylpyrimidine-4-carboxamido)-5-oxo-5-(4-(pentyloxycarbonyl)piperazin-1-yl)pentanoic acid], the IC50 came to 2.7 µM. Next, `CCCCCOC(=O)N1CCN(C(=O)[C@H](CCC(=O)O)NC(=O)c2cc(N3CCN(C)CC3)nc(-c3ccccc3)n2)CC1` [(S)-4-(6-(4-methylpiperazin-1-yl)-2-phenylpyrimidine-4-carboxamido)-5-oxo-5-(4-(pentyloxycarbonyl)piperazin-1-yl)pentanoic acid]: 1.4 µM; `CCCCCOC(=O)N1CCN(C(=O)[C@H](CCC(=O)O)NC(=O)c2cc(N3CCC(C)CC3)nc(-c3ccccc3)n2)CC1` [(S)-4-(6-(4-methylpiperidin-1-yl)-2-phenylpyrimidine-4-carboxamido)-5-oxo-5-(4-(pentyloxycarbonyl)piperazin-1-yl)pentanoic acid]: more than 10 µM; `CCCCCOC(=O)N1CCN(C(=O)[C@H](CCC(=O)O)NC(=O)c2cc(N3CCC(N4CCOCC4)CC3)nc(-c3ccccc3)n2)CC1` [(S)-4-(6-(4-morpholinopiperidin-1-yl)-2-phenylpyrimidine-4-carboxamido)-5-oxo-5-(4-(pentyloxycarbonyl)piperazin-1-yl)pentanoic acid]: 0.78 µM. The result for `CCCCCOC(=O)N1CCN(C(=O)[C@H](CCC(=O)O)NC(=O)c2cc(OCC3CCN(C)CC3)nc(-c3ccccc3)n2)CC1` [(S)-4-(6-((1-methylpiperidin-4-yl)methoxy)-2-phenylpyrimidine-4-carboxamido)-5-oxo-5-(4-(pentyloxycarbonyl)piperazin-1-yl)pentanoic acid] reads 3.6 µM.

Consider `CCCCCOC(=O)N1CCN(C(=O)[C@H](CCC(=O)O)NC(=O)c2cc(SC3CCCCC3)nc(-c3ccccc3)n2)CC1` [(S)-4-(6-(cyclohexylthio)-2-phenylpyrimidine-4-carboxamido)-5-oxo-5-(4-(pentyloxycarbonyl)piperazin-1-yl)pentanoic acid], for which the IC50 was more than 10 µM. Next, `CCCCCOC(=O)N1CCN(C(=O)[C@H](CCC(=O)O)NC(=O)c2cc(SC3CCCC3)nc(-c3ccccc3)n2)CC1` [(S)-4-(6-(cyclopentylthio)-2-phenylpyrimidine-4-carboxamido)-5-oxo-5-(4-(pentyloxycarbonyl)piperazin-1-yl)pentanoic acid]: more than 10 µM. The result for `CCCCCOC(=O)N1CCN(C(=O)[C@H](CCC(=O)O)NC(=O)c2cc(SC(C)(C)C)nc(-c3ccccc3)n2)CC1` [(S)-4-(6-(tert-butylthio)-2-phenylpyrimidine-4-carboxamido)-5-oxo-5-(4-(pentyloxycarbonyl)piperazin-1-yl)pentanoic acid] reads more than 10 µM; that for `CCCCCOC(=O)N1CCN(C(=O)[C@H](CCC(=O)O)NC(=O)c2cc(N3CCOCC3)nc(-c3ccccc3)n2)CC1` [(S)-4-(6-morpholino-2-phenylpyrimidine-4-carboxamido)-5-oxo-5-(4-(pentyloxycarbonyl)piperazin-1-yl)pentanoic acid], 6.3 µM. Next, `CCCCOC(=O)N1CCN(C(=O)[C@H](CCC(=O)O)NC(=O)c2cc(OC3CCN(C(C)C)CC3)nc(-c3ccccc3)n2)CC1` [(S)-5-(4-(butoxycarbonyl)piperazin-1-yl)-4-(6-(1-isopropylpiperidin-4-yloxy)-2-phenylpyrimidine-4-carboxamido)-5-oxopentanoic acid]: 1.8 µM; `CCCCOC(=O)N1CCN(C(=O)[C@H](CCC(=O)O)NC(=O)c2cc(OCCN(CC)CC)nc(-c3ccccc3)n2)CC1` [(S)-5-(4-(butoxycarbonyl)piperazin-1-yl)-4-(6-(2-(diethylamino)ethoxy)-2-phenylpyrimidine-4-carboxamido)-5-oxopentanoic acid]: 3 µM. Consider `CCCCOC(=O)N1CCN(C(=O)[C@H](CCC(=O)O)NC(=O)c2cc(OCCOC)nc(-c3ccccc3)n2)CC1` [(S)-5-(4-(butoxycarbonyl)piperazin-1-yl)-4-(6-(2-methoxyethoxy)-2-phenylpyrimidine-4-carboxamido)-5-oxopentanoic acid], for which the IC50 is 2.6 µM.

Regarding `CCCCOC(=O)N1CCN(C(=O)[C@H](CCC(=O)O)NC(=O)c2cc(N3CCC(CCOC)CC3)nc(-c3ccccc3)n2)CC1` [(S)-5-(4-(butoxycarbonyl)piperazin-1-yl)-4-(6-(4-(2-methoxyethyl)piperidin-1-yl)-2-phenylpyrimidine-4-carboxamido)-5-oxopentanoic acid], the IC50 came out at 1.2 µM. Take `CCCCOC(=O)N1CCN(C(=O)[C@H](CCC(=O)O)NC(=O)c2cc(N3CCC(C(=O)N(CC)CC)CC3)nc(-c3ccccc3)n2)CC1` [(S)-5-(4-(butoxycarbonyl)piperazin-1-yl)-4-(6-(4-(diethylcarbamoyl)piperidin-1-yl)-2-phenylpyrimidine-4-carboxamido)-5-oxopentanoic acid]: the IC50 was 0.28 µM. On to `CCCCOC(=O)N1CCN(C(=O)[C@H](CCC(=O)O)NC(=O)c2cc(N3CCC(C(=O)N(C)C)CC3)nc(-c3ccccc3)n2)CC1` [(S)-5-(4-(butoxycarbonyl)piperazin-1-yl)-4-(6-(4-(dimethylcarbamoyl)piperidin-1-yl)-2-phenylpyrimidine-4-carboxamido)-5-oxopentanoic acid], for which the IC50 is 1.5 µM. Next, `CCCCOC(=O)N1CCN(C(=O)[C@H](CCC(=O)O)NC(=O)c2cc(N3CCC(OC)CC3)nc(-c3ccccc3)n2)CC1` [(S)-5-(4-(butoxycarbonyl)piperazin-1-yl)-4-(6-(4-methoxypiperidin-1-yl)-2-phenylpyrimidine-4-carboxamido)-5-oxopentanoic acid]: 1.8 µM. The result for `CCCCOC(=O)N1CCN(C(=O)[C@H](CCC(=O)O)NC(=O)c2cc(N3CCC(N4CCOCC4)CC3)nc(-c3ccccc3)n2)CC1` [(S)-5-(4-(butoxycarbonyl)piperazin-1-yl)-4-(6-(4-morpholinopiperidin-1-yl)-2-phenylpyrimidine-4-carboxamido)-5-oxopentanoic acid] reads 0.88 µM; that for `CCCCOC(=O)N1CCN(C(=O)[C@H](CCC(=O)O)NC(=O)c2cc(OCC3CCN(C)CC3)nc(-c3ccccc3)n2)CC1` [(S)-5-(4-(butoxycarbonyl)piperazin-1-yl)-4-(6-((1-methylpiperidin-4-yl)methoxy)-2-phenylpyrimidine-4-carboxamido)-5-oxopentanoic acid], 3 µM; that for `CCCCOC(=O)N1CCN(C(=O)[C@H](CCC(=O)O)NC(=O)c2cc(N3CCC(N4CCCC4)CC3)nc(-c3ccccc3)n2)CC1` [(S)-5-(4-(butoxycarbonyl)piperazin-1-yl)-5-oxo-4-(2-phenyl-6-(4-(pyrrolidin-1-yl)piperidin-1-yl)pyrimidine-4-carboxamido)pentanoic acid], 0.66 µM. Next, `CCCCOC(=O)N1CCN(C(=O)[C@H](CCC(=O)O)NC(=O)c2cc(N3CCC(C(=O)N4CCCC4)CC3)nc(-c3ccccc3)n2)CC1` [(S)-5-(4-(butoxycarbonyl)piperazin-1-yl)-5-oxo-4-(2-phenyl-6-(4-(pyrrolidine-1-carbonyl)piperidin-1-yl)pyrimidine-4-carboxamido)pentanoic acid]: 0.39 µM; `CCCCOC(=O)N1CCN(C(=O)[C@H](CCC(=O)O)NC(=O)c2cc(OCC3CCNCC3)nc(-c3ccccc3)n2)CC1` [(S)-5-(4-(butoxycarbonyl)piperazin-1-yl)-5-oxo-4-(2-phenyl-6-(piperidin-4-ylmethoxy)pyrimidine-4-carboxamido)pentanoic acid]: 1.2 µM; `CCCCOC(=O)N1CCN(C(=O)[C@H](CCC(=O)O)NC(=O)c2cc(OC3CCNCC3)nc(-c3ccccc3)n2)CC1` [(S)-5-(4-(butoxycarbonyl)piperazin-1-yl)-5-oxo-4-(2-phenyl-6-(piperidin-4-yloxy)pyrimidine-4-carboxamido)pentanoic acid]: 1.3 µM. For the molecule `CCCCCOC(=O)N1CCN(C(=O)[C@H](CCC(=O)O)NC(=O)c2cc(N3CCN(CC(=O)N4CCCC4)CC3)nc(-c3ccccc3)n2)CC1` [(S)-5-oxo-4-(6-(4-(2-oxo-2-(pyrrolidin-1-yl)ethyl)piperazin-1-yl)-2-phenylpyrimidine-4-carboxamido)-5-(4-(pentyloxycarbonyl)piperazin-1-yl)pentanoic acid], the IC50 worked out at 1.1 µM.

In the case of `CCCCCOC(=O)N1CCN(C(=O)[C@H](CCC(=O)O)NC(=O)c2cc(N3CCC(CC(=O)N4CCCC4)CC3)nc(-c3ccccc3)n2)CC1` [(S)-5-oxo-4-(6-(4-(2-oxo-2-(pyrrolidin-1-yl)ethyl)piperidin-1-yl)-2-phenylpyrimidine-4-carboxamido)-5-(4-(pentyloxycarbonyl)piperazin-1-yl)pentanoic acid], the IC50 was determined as 1.5 µM. Next, `CCCCCOC(=O)N1CCN(C(=O)[C@H](CCC(=O)O)NC(=O)c2cc(N3CCC(CN4CCCC4=O)CC3)nc(-c3ccccc3)n2)CC1` [(S)-5-oxo-4-(6-(4-((2-oxopyrrolidin-1-yl)methyl)piperidin-1-yl)-2-phenylpyrimidine-4-carboxamido)-5-(4-(pentyloxycarbonyl)piperazin-1-yl)pentanoic acid]: 1.6 µM; `CCCCCOC(=O)N1CCN(C(=O)[C@H](CCC(=O)O)NC(=O)c2cc(SCC(F)(F)F)nc(-c3ccccc3)n2)CC1` [(S)-5-oxo-5-(4-(pentyloxycarbonyl)piperazin-1-yl)-4-(2-phenyl-6-(2,2,2-trifluoroethylthio)pyrimidine-4-carboxamido)pentanoic acid]: more than 10 µM; `CCCCCOC(=O)N1CCN(C(=O)[C@H](CCC(=O)O)NC(=O)c2cc(N3CCC(CCN4CCCC4)CC3)nc(-c3ccccc3)n2)CC1` [(S)-5-oxo-5-(4-(pentyloxycarbonyl)piperazin-1-yl)-4-(2-phenyl-6-(4-(2-(pyrrolidin-1-yl)ethyl)piperidin-1-yl)pyrimidine-4-carboxamido)pentanoic acid]: 0.81 µM.

Regarding `CCCCCOC(=O)N1CCN(C(=O)[C@H](CCC(=O)O)NC(=O)c2cc(N3CCC(N4CCCC4)CC3)nc(-c3ccccc3)n2)CC1` [(S)-5-oxo-5-(4-(pentyloxycarbonyl)piperazin-1-yl)-4-(2-phenyl-6-(4-(pyrrolidin-1-yl)piperidin-1-yl)pyrimidine-4-carboxamido)pentanoic acid], the IC50 came out at 0.51 µM.
